Experimental data published in patent US9073916B2, “Prodrug forms of kinase inhibitors and their use in therapy” (AUCKLAND UNISERVICES LIMITED, priority 2009, dated 2015).
Where two headings read alike, the source gives them in different places.

How the values were obtained:
erbB2 = erbB2 (Homo sapiens, UniProt P04626); assay: Isolated enzyme inhibition (Invitrogen Z′-LYTE kinase assay); format: biochemical; conditions: 10 μM ATP, duplicate
Description: (§1) The compounds of Table 1 were tested for their ability to inhibit erbB1, erbB1^T790M, erbB2 and erbB4 in an isolated enzyme assay. This assay utilises synthetic FRET-capable peptide substrates. Phosphorylation of these substrates protects them from cleavage by a development reagent, leaving their FRET-capabilities intact. […] As a further consideration, for compounds capable of irreversible inhibition of an enzyme, the IC50 reflects both reversible and irreversible binding to the enzyme.

A431 cells = assay: Cellular growth inhibition (sulforhodamine B)
[1] = Pulse radiolysis (E(1) and fragmentation rate); format: physicochemical; conditions: for E (1)/V (one-electron reduction potential): determined against methylviologen
Description: (§2) Pulse radiolysis was used to monitor the 1-electron reduction and stability of the compounds in real time. A linear accelerator delivering short pulses of high energy electrons (2-3 Gy in 200 ns of 4 MeV) equipped with a fast spectophotometric detection system was used. (Anderson et al, J. Phys. Chem. A, 101, 9704-9709, 1997). […] The rate of fragmentation was determined by analysing kinetic transients at wavelengths corresponding to the formation of the benzyl-type radical of the trigger moiety. (Bays et al, J. Am. Chem. Soc., 105, 320-324, 1983; Anderson et al, J. Phys. Chem. A, 101, 9704-9709, 1997).
The pulse radiolysis method, for example, measures the equilibrium constant between the radical anions of the prodrugs, formed upon their 1-electron reduction, and reference standards such as viologen and quinone compounds, from which data the E(1) values of the compounds can be calculated. (Meisel and Czapski. J. Phys. Chem., 1975, 79, 1503-1509.) The E(1) values of prodrugs 17-22, 140-145 were measured by the pulse radiolysis method and determined to range between −0.493V and −0.388V (Table 4).
The rate constants for fragmentation, kfrag, of the 1-electron reduced prodrugs can be measured using pulse radiolysis to observe the time-resolved formation of the absorption spectrum of the benzyl-type radical produced upon fragmentation of the radical anion. (Anderson et al, J. Phys. Chem. A, 1997, 101, 9704-9709.) The kfrag values of prodrugs 19, 20, 140, 141 and 143-145 were measured by pulse radiolysis and are presented in Table 4.
as §2, with “one-electron” for “1-electron”, “prodrug 42” for “the compounds”, “used.” for “used. (Anderson et al, J. Phys. Chem. A, 101, 9704-9709, 1997).”, “1997.)” for “1997).”

erbB1 [2] = biological target: T1, erbB1 (Homo sapiens, UniProt P00533); assay: Isolated enzyme inhibition (Invitrogen Z′-LYTE kinase assay); format: biochemical; conditions: 10 μM ATP, duplicate
[3] = Steady state radiolytic reduction by the CO2.− radical with HPLC-MS; format: physicochemical; conditions: for Effector release/Prodrug loss: 0.95 reducing equivalents; for Detection of MNA (methyl nitroaromatic) / release of effector following 1-electron reduction: HPLC-MS; for % Loss of prodrug / % Release of effector: HPLC-MS at 0.95 reducing equivalents; for release of effector following 1-electron reduction: steady state radiolysis
erbB1 [4] = biological target: T1, erbB1; assay: Cellular erbB1 inhibition under oxic and hypoxic conditions in A431 cells; format: cell-based; conditions: 1 μM, 4 hour exposure oxic or hypoxic, washed, EGF stimulated
erbB1 [5] = biological target: T1, erbB1; assay: Inhibition of erbB1 autophosphorylation in EGF-stimulated intact A431 cells (Western blot); conditions: for Deact. (fold reduction in cellular erbB1 inhibition relative to the parent kinase inhibitor): A431 cells
SW620 cells = assay: Cellular growth inhibition (sulforhodamine B); format: cell-based, Human; conditions: Table 3
SKBR3 cells = assay: Cellular growth inhibition (sulforhodamine B); format: cell-based, Human; conditions: Table 3
erbB4 = erbB4 (Homo sapiens, UniProt Q15303); assay: Isolated enzyme inhibition (Invitrogen Z′-LYTE kinase assay); format: biochemical; conditions: 10 μM ATP, duplicate
Description: as §1

erbB1^T790M = erbB1^T790M (Homo sapiens, UniProt P00533, T790M); assay: as above; format: biochemical; conditions: 10 μM ATP, duplicate
A431 xenografts = assay: In vivo efficacy in A431 xenografts; conditions: A431 xenografts, q4dx3 at MTD, IP in lactate buffer
Description: Specific pathogen-free homozygous female CD-1 nude mice (Charles River Laboratories, Wilmington, Mass.) were inoculated subcutaneously with a single cell suspension of A431 cells (5×10^6 cells/100 […]; right flank). When A431 tumour xenografts were established (typically 6-10 days) mice were randomized to treatment groups. All compounds were prepared in lactate buffer (pH4). Mice were dosed by intraperitoneal injection (0.01-0.03 ml/g) using the stated schedules and dose levels. Tumour size and body weights were measured at regular intervals. Tumour volume was calculated as π (length×width^2)/6. […] Differences in RTV^4 were tested for statistical difference by Mann Whitney U test using SigmaStat v3.5.

[6] = Homo sapiens, A-431, 24 h, read-out: Cellular Growth Inhibition IC50 A431 Oxic
[7] = Homo sapiens, A-431, read-out: Cellular Growth Inhibition IC50 A431 Anoxic
[8] = Homo sapiens, SW-620, 24 hour exposure entirely oxic, read-out: Cellular Growth Inhibition IC50 SW620 Oxic
[9] = Homo sapiens, SW-620, first 4 hours anoxic, read-out: Cellular Growth Inhibition IC50 SW620 Anoxic
[10] = Homo sapiens, SK-BR-3, 24 hour exposure entirely oxic, read-out: Cellular Growth Inhibition IC50 SKBR3 Oxic
[11] = Homo sapiens, SK-BR-3, first 4 hours anoxic, read-out: Cellular Growth Inhibition IC50 SKBR3 Anoxic

T1 sequence (P00533 25-1210): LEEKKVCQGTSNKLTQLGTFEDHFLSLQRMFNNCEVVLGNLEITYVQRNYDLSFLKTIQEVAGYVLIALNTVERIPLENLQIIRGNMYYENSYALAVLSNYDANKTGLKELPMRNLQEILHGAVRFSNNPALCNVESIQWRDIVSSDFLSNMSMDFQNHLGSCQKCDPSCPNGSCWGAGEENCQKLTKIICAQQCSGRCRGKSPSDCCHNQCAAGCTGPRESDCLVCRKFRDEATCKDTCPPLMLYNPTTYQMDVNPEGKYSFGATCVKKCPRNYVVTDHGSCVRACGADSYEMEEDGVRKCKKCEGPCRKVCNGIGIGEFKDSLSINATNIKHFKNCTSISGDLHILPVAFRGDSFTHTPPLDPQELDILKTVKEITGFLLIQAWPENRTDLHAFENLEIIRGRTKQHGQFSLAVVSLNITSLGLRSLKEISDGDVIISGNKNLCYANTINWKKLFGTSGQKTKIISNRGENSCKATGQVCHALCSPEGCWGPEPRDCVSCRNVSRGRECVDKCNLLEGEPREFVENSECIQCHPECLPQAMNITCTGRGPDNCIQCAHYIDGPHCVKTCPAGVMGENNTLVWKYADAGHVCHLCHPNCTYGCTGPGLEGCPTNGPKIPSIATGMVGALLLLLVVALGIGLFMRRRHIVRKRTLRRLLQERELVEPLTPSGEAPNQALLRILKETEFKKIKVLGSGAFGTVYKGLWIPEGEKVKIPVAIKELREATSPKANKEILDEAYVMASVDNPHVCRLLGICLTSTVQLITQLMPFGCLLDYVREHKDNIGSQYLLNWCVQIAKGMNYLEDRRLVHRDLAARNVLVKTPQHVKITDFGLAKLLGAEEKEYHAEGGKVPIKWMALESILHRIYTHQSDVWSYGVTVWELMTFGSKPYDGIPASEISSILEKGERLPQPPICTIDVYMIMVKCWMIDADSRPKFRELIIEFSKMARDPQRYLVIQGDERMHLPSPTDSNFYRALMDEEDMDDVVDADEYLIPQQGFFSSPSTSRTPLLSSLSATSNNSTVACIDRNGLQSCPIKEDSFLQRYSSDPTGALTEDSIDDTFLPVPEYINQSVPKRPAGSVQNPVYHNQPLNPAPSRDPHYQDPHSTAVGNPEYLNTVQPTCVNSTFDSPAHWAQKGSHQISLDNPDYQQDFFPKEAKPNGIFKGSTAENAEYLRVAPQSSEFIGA
Sequence of erbB2 (P04626 23-1255): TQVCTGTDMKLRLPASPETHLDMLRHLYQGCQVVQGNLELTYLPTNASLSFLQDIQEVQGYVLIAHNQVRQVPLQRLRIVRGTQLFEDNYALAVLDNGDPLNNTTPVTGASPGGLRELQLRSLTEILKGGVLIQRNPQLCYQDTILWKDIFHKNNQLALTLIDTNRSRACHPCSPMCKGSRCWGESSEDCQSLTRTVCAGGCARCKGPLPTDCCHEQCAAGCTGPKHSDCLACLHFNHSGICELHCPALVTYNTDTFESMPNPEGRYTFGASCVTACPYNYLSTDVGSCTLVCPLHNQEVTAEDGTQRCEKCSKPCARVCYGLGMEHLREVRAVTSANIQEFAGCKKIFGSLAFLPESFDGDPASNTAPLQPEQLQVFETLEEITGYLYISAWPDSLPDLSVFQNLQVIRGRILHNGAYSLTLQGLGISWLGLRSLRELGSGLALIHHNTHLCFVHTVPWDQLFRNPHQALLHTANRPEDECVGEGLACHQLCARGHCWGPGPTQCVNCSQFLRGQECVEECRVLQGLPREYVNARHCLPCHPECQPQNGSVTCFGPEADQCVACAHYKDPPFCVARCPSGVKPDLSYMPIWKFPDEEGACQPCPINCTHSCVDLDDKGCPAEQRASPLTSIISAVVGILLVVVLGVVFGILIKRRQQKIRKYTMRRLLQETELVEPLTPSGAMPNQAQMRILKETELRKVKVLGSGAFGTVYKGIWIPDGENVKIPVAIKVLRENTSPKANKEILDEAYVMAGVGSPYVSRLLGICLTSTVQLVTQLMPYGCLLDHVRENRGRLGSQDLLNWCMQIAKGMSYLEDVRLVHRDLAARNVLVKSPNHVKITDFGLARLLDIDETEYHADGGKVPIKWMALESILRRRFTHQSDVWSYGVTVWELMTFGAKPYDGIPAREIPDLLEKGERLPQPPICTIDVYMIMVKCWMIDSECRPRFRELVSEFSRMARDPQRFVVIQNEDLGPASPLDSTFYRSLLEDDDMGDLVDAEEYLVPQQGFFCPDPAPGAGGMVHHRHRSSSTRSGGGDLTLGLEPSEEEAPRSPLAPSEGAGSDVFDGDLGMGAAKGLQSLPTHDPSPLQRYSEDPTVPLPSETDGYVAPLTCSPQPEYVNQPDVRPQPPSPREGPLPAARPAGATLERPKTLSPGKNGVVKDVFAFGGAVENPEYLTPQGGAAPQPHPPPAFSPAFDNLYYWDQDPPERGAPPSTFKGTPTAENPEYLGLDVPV
Sequence of erbB1^T790M (P00533 25-1210 T790M): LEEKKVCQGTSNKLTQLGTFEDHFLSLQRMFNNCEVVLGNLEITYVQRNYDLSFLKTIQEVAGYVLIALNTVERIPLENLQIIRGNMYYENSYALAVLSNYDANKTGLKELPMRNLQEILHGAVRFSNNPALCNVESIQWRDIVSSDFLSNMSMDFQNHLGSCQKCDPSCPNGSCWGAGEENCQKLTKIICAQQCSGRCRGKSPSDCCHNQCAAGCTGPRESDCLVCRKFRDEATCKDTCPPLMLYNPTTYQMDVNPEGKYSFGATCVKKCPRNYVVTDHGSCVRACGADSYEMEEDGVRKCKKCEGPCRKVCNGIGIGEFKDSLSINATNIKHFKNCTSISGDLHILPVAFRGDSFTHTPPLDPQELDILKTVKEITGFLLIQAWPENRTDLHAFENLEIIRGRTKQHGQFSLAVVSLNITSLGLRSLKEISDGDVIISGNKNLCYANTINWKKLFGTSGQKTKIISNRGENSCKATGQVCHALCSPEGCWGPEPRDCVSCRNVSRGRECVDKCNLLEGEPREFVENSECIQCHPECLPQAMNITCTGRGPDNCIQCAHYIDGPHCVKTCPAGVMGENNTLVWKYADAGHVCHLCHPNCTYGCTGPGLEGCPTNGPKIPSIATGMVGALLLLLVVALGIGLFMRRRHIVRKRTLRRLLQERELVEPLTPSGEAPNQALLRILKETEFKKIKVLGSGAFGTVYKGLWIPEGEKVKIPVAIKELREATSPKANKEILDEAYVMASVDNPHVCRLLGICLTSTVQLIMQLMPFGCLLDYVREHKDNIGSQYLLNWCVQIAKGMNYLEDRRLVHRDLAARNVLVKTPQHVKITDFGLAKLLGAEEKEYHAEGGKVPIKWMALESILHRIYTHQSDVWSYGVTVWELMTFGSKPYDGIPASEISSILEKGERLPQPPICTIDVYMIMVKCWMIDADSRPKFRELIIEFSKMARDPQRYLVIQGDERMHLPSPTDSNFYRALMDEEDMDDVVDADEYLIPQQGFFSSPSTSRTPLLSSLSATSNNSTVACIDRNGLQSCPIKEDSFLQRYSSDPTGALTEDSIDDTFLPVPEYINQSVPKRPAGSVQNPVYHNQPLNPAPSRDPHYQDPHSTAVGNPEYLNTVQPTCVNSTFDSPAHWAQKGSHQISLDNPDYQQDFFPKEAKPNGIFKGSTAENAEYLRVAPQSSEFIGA
Sequence of erbB4 (Q15303 26-1308): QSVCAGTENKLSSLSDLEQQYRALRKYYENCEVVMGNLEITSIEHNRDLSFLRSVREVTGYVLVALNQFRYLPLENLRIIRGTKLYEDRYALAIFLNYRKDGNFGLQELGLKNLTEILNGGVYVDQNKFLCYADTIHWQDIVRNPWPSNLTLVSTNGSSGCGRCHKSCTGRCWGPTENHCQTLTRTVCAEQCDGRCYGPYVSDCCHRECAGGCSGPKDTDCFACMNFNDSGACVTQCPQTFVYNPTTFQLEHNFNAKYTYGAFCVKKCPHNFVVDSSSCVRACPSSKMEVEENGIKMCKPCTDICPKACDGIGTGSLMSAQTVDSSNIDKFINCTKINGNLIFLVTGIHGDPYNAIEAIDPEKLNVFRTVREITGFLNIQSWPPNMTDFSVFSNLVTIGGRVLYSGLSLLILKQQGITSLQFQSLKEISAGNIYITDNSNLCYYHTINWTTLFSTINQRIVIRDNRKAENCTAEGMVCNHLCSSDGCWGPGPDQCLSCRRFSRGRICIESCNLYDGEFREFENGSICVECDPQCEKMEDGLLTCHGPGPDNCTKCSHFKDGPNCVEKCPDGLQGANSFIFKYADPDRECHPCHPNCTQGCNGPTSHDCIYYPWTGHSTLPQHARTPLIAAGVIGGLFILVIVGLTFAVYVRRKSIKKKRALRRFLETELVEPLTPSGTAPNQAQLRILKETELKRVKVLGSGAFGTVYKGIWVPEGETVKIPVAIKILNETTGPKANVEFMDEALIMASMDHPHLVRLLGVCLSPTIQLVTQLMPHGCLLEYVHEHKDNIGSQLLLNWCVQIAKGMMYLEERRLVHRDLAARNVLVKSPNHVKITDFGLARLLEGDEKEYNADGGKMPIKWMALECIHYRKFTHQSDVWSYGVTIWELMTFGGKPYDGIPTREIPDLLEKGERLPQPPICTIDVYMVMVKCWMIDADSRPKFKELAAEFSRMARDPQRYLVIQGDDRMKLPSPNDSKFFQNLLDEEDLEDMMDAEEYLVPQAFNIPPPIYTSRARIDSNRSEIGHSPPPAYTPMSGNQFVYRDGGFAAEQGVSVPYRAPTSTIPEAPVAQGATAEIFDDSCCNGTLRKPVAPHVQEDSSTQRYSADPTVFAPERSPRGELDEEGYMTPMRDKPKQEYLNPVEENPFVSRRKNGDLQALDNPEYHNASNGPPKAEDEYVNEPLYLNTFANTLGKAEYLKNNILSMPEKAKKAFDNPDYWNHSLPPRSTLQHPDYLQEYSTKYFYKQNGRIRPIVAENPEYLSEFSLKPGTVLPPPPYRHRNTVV

| Compound | IC50 (erbB2) [nM] | IC50 (A431 cells; [6]) [nM] | IC50 (A431 cells; [7]) [nM] | E (1)/V (one-electron reduction potential) [1] [V] | IC50 (erbB1 [2]) [nM] | Detection of MNA (methyl nitroaromatic) [3] | % Loss of prodrug [3] [%] | hypoxia-selective inhibition of p-erbB1 (erbB1 [4]) | IC50 (SW620 cells; [8]) [µM] | IC50 (SW620 cells; [9]) [µM] | IC50 (SKBR3 cells; [10]) [nM] | IC50 (SKBR3 cells; [11]) [nM] | A431 Deact. (fold reduction in oxic growth inhibition relative to parent kinase inhibitor) (A431 cells; Table 3) [fold] | A431 HCR (Hypoxic Cytotoxicity Ratio) (A431 cells; Table 3) [fold] | Effector release/Prodrug loss [3] | release of effector following 1-electron reduction [3] | SW620 Deact. (SW620 cells) [fold] | SW620 HCR (SW620 cells) [fold] | SKBR3 Deact. (SKBR3 cells) [fold] | SKBR3 HCR (SKBR3 cells) [fold] | other results |
| --- | --- | --- | --- | --- | --- | --- | --- | --- | --- | --- | --- | --- | --- | --- | --- | --- | --- | --- | --- | --- | --- |
| C[N+](C)(C/C=C/C(=O)Nc1ccc2ncnc(Nc3cccc(Br)c3)c2c1)Cc1ccc([N+](=O)[O-])cc1 [Compound 17, (2E)-4-{[4-(3-bromoanilino)-6-quinazolinyl]amino}-N,N-dimethyl-N-(4-nitrobenzyl)-4-oxo-2-buten-1-ammonium bromide] | 110 | 462 | 444 | −0.408 | 0.56 | No | 33 | no apparent hypoxia-selective inhibition | 112 | 112 | 1520 | 1840 | 12 | 1.0 |  | did not release their respective effector compounds | 33 | 1.0 | 19 | 0.8 |  |
| Cn1c(C[N+](C)(C)C/C=C/C(=O)Nc2ccc3ncnc(Nc4cccc(Br)c4)c3c2)ccc1[N+](=O)[O-].[Br-] [Compound 19, (2E)-4-{[4-(3-bromoanilino)-6-quinazolinyl]amino}-N,N-dimethyl-N-[(1-methyl-5-nitro-1H-pyrrol-2-yl)methyl]-4-oxo-2-buten-1-ammonium bromide] | 113 |  |  | −0.493 | 0.4 | No | 63 |  |  |  |  |  |  |  | 0.73 | released effector (compound 11) detected | 46 | 5.6 | 78 |  | IC50 (erbB4): 61 nM; IC50 (A431 cells; read-out: Cellular Growth Inhibition IC50 A431 Anoxic, Table 3, first 4 hours of 24 hour exposure anoxic): 201 nM; IC50 (A431 cells; read-out: Cellular Growth Inhibition IC50 A431 Oxic, Table 3, 24 hour exposure entirely oxic): 2640 nM; kfrag. (fragmentation rate constant upon 1-electron reduction) ([1]; benzyl-type radical formation): 90 ± 10 s⁻¹; IC50 (erbB1^T790M): 451 nM; % Release of effector [3]: 46%; IC50 (erbB1 [5]; read-out: Cellular Enzyme Inhibition IC50 erbB1, Table 2, intact A431 cells, EGF-stimulated, average of two determinations): 962 nM; tumour growth inhibition (TGI) (A431 xenografts): 120%; IC50 (SW620 cells; 24 hour exposure entirely oxic, read-out: Cellular Growth Inhibition IC50 SW620 Oxic): 156 µM; IC50 (SW620 cells; first 4 hours anoxic, read-out: Cellular Growth Inhibition IC50 SW620 Anoxic): 28 µM; IC50 (SKBR3 cells; 24 hour exposure entirely oxic, read-out: Cellular Growth Inhibition IC50 SKBR3 Oxic): 6330 nM; IC50 (SKBR3 cells; first 4 hours anoxic, read-out: Cellular Growth Inhibition IC50 SKBR3 Anoxic): 483 nM |
| Cn1cnc([N+](=O)[O-])c1C[N+](C)(C)CCCC(=O)Nc1ccc2ncnc(Nc3cccc(Br)c3)c2c1 [Compound 27, 4-{([4-(3-bromoanilino)-6-quinazolinyl]amino}-N,N-dimethyl-N-[(1-methyl-4-nitro-1H-imidazol-5-yl)methyl]-4-oxo-1-butanaminium bromide] | 191 | 255000 | 76100 |  | 0.64 |  |  |  | 684 | 585 | 507000 | 74300 | 203 | 3.4 |  |  | 37 | 1.2 | 159 | 7.6 | IC50 (erbB4): 174 nM; IC50 (erbB1^T790M): 798 nM; IC50 (erbB1 [5]): 3600 nM; Deact. (fold reduction in cellular erbB1 inhibition relative to the parent kinase inhibitor) (erbB1 [5]; Table 2): 201 fold |

Further lines, with some results ahead:

| IC50 (erbB2) [nM] | IC50 (A431 cells; [6]) [nM] | IC50 (A431 cells; [7]) [nM] | E (1)/V (one-electron reduction potential) [1] [V] | IC50 (erbB1 [2]) [nM] | Detection of MNA (methyl nitroaromatic) [3] | % Loss of prodrug [3] [%] | hypoxia-selective inhibition of p-erbB1 (erbB1 [4]) | IC50 (SW620 cells; [8]) [µM] | IC50 (SW620 cells; [9]) [µM] | IC50 (SKBR3 cells; [10]) [nM] | IC50 (SKBR3 cells; [11]) [nM] | Compound | A431 Deact. (fold reduction in oxic growth inhibition relative to parent kinase inhibitor) (A431 cells; Table 3) [fold] | A431 HCR (Hypoxic Cytotoxicity Ratio) (A431 cells; Table 3) [fold] | Effector release/Prodrug loss [3] | release of effector following 1-electron reduction [3] | SW620 Deact. (SW620 cells) [fold] | SW620 HCR (SW620 cells) [fold] | SKBR3 Deact. (SKBR3 cells) [fold] | SKBR3 HCR (SKBR3 cells) [fold] | other results |
| --- | --- | --- | --- | --- | --- | --- | --- | --- | --- | --- | --- | --- | --- | --- | --- | --- | --- | --- | --- | --- | --- |
| 135 | 5860 | 564 | −0.449 | 0.46 | No | 35 | no apparent hypoxia-selective inhibition | 281 | 123 | 11000 | 1640 | Cn1ncc([N+](=O)[O-])c1C[N+](C)(C)C/C=C/C(=O)Nc1ccc2ncnc(Nc3cccc(Br)c3)c2c1 [Compound 22, (2E)-4-{[4-(3-bromoanilino)-6-quinazolinyl]amino}-N,N-dimethyl-N-[(1-methyl-4-nitro-1H-pyrazol-5-yl)methyl]-4-oxo-2-buten-1-ammonium bromide] | 147 | 10.4 | 0.49 | did not release their respective effector compounds | 82 | 2.3 | 136 | 6.7 | % Release of effector [3]: 17%; IC50 (erbB1 [5]): 1390 nM; Deact. (fold reduction in cellular erbB1 inhibition relative to the parent kinase inhibitor) (erbB1 [5]; Table 2): 151 fold |
| 123 | 2340 | 401 | −0.388 | 0.2 | No | 33 | no apparent hypoxia-selective inhibition | 92.2 | 79.8 | 3750 | 1290 | C[N+](C)(C/C=C/C(=O)Nc1ccc2ncnc(Nc3cccc(Br)c3)c2c1)Cc1ccccc1[N+](=O)[O-] [Compound 18, (2E)-4-{[4-(3-bromoanilino)-6-quinazolinyl]amino}-N,N-dimethyl-N-(2-nitrobenzyl)-4-oxo-2-buten-1-ammonium bromide] | 59 | 5.8 |  | did not release their respective effector compounds | 27 | 1.2 | 44 | 2.8 |  |
